Measurements from PubChem BioAssay (NCI).
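Five concentrations, 48 hours, 96-well plates. The concentration for 50% growth inhibition is given as GI50. TGI: concentration producing complete growth inhibition.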 Where a SMILES comes first, the peptide text is derived from it. [ ]: non-standard residue; d: D form. The star is where a group is joined. Bn2Val = CC(C)[C@@H](C(=O)*)N(Cc1ccccc1)Cc1ccccc1; NH(4-Cl-benzyl) = Clc1ccc(CN*)cc1; NMeV = CN[C@H](C(=O)O)C(C)C; dNMeA = CN[C@H](C)C(=O)O

Assays:
Assay in all cases: growth of human tumour cells (NCI), 48 h
[1] = system: A498 renal
[2] = system: BT-549 breast
[3] = system: CCRF-CEM leukemia
[4] = system: HOP-62 NSCLC
[5] = system: HS 578T breast
[6] = system: MDA-MB-231 breast
[7] = system: OVCAR-4 ovarian
[8] = system: RPMI-8226 leukemia
[9] = system: RXF 393 renal
[10] = system: SW-620 colon

Row | SMILES | TGI [1] [µM] | TGI [2] [µM] | TGI [3] [µM] | TGI [4] [µM] | TGI [5] [µM] | TGI [6] [µM] | TGI [7] [µM] | TGI [8] [µM] | TGI [9] [µM] | TGI [10] [µM] | GI50 [4] [µM] | GI50 [1] [µM] | GI50 [2] [µM] | GI50 [5] [µM] | GI50 [6] [µM] | GI50 [7] [µM] | GI50 [8] [µM] | GI50 [9] [µM] | GI50 [10] [µM]
1 | CN(C)CCCNc1ccc2nnn3c4ccc(O)cc4c(=O)c1c23 | 20.1 | 33.9 | 38.2 | 17.6 | 13.3 | 23.6 | 18.5 | 29.6 | 1.16 | 17.2 | – | – | – | – | – | – | – | – | –
2 | O=C1OC[C@H]2[C@@H]1[C@H]1O[C@@H]2C2=C(CCC2)C1=O | > 100 | > 100 | > 100 | > 100 | > 100 | > 100 | > 100 | > 100 | > 100 | > 100 | – | – | – | – | – | – | – | – | –
3 | CN(Cc1cnc2nc(N)nc(N)c2n1)c1ccc(C(=O)NC(CO)CCCO)cc1 (stereo unspecified) | > 100 | > 100 | > 100 | > 100 | > 100 | > 100 | – | > 100 | > 100 | > 100 | – | – | – | – | – | – | – | – | –
4 | Cc1c(C(=O)OCc2ccccc2)[n+](=O)c2cc(Cl)c(Cl)cc2n1[O-] | 35.6 | 44.4 | 39.4 | 30.5 | 47.4 | 38.2 | 26.9 | 21.2 | 36 | – | – | – | – | – | – | – | – | – | –
5 | COc1cc(C2c3cc4c(cc3C3OC[C@@H]2C3CO)OCO4)cc(OC)c1OC (stereo partly specified) | > 100 | 97.6 | > 100 | > 100 | 95.7 | > 100 | > 100 | > 100 | > 100 | > 100 | 47.4 | – | – | – | – | – | – | – | –
6 | CC1(C)CC(=O)C2(CC(CSc3ccccc3)C(CS(=O)(=O)c3ccccc3)C2)C(=O)C1 (stereo unspecified) | > 100 | > 100 | > 100 | > 100 | > 100 | > 100 | > 100 | > 100 | > 100 | > 100 | – | – | – | – | – | – | – | – | –
7 | CCCCCCCCCCCCCCCCCCNc1nc(=O)n(C2CC(O)C(COP(=O)(O)O)O2)cc1F (stereo unspecified) | > 100 | > 100 | 81.2 | > 100 | > 100 | > 100 | > 100 | > 100 | > 100 | > 100 | – | – | – | – | – | – | – | – | –
8 | COc1ccc(C(=O)CC(c2ccccc2)[C@H]2C(c3ccc(OC)cc3)=Nc3c(nc(SC)n(C)c3=O)NC2c2ccccc2)cc1 (stereo partly specified) | > 100 | > 100 | > 100 | > 100 | > 100 | > 100 | – | > 100 | > 100 | > 100 | – | – | – | – | – | – | – | – | –
9 | CC(C)[C@H](NC(=O)[C@H](C(C)C)N(Cc1ccccc1)Cc1ccccc1)C(=O)N(C)[C@H](C(=O)N1CCC[C@H]1C(=O)N(C)[C@H](C)C(=O)NCc1ccc(Cl)cc1)C(C)C (Bn2Val-V[NMeV]P[dNMeA]-{NH(4-Cl-benzyl)}) | – | 13.5 | 7.43 | 29.5 | 4.04 | 11.8 | > 100 | > 100 | 6.27 | > 100 | – | – | – | – | – | – | – | – | –
10 | CCOC(=O)c1cc(C)nc2c1c(=O)n(-c1ccccc1)c(=O)n2CCCCN1CCN(c2ccccc2)CC1 | > 100 | > 100 | – | > 100 | > 100 | > 100 | > 100 | 77.3 | > 100 | > 100 | – | – | – | – | – | – | – | – | –
11 | CC(C)(C)OC(=O)NCC(CNC(=O)OC(C)(C)C)c1nc(C(N)=O)cs1 | > 100 | > 100 | > 100 | > 100 | > 100 | > 100 | > 100 | – | > 100 | > 100 | – | – | – | – | – | – | – | – | –
12 | CC(=O)NC1C(OCc2ccccc2)OC(CO)C(O)C1OC(C)C(=O)NC(C(=O)NC(CCC(=O)NCCCCNc1c2ccccc2nc2cccc([N+](=O)[O-])c12)C(N)=O)C(C)C (stereo unspecified) | 4.74 | 20.8 | – | 11.7 | 42.6 | 25.5 | 3.97 | 2.39 | 3.56 | > 32.9 | – | – | – | – | – | – | – | – | –
13 | c1ccc(/C(=N/Nc2ccncn2)c2ccccn2)cc1 | – | > 100 | > 100 | > 100 | 29.9 | > 100 | > 100 | > 100 | > 100 | > 100 | – | – | – | – | – | – | – | – | –
14 | Cc1nnc2n1N=C(c1ccc(Cl)cc1Cl)/C(=C/c1ccc(-c3ccc([N+](=O)[O-])cc3Cl)o1)S2 | 95.8 | 43.3 | – | > 100 | 50.7 | 30.6 | > 100 | 24.9 | 25.1 | 33 | > 100 | 31.7 | 22.1 | 20.2 | 12.2 | 33.4 | 10.2 | 11.5 | 13.3
